From ChEMBL document CHEMBL6127111, “First-in-Class Small Molecule Degrader of Pregnane X Receptor Enhances Chemotherapy Efficacy” (J Med Chem, 2024)
Active and inactive are the calls of the source. The calls are words filed in the database; no cut-off is given here.

Experiments:
[1] = biological target: T1, von Hippel-Lindau disease tumor suppressor/Nuclear receptor subfamily 1 group I member 2 (Homo sapiens, UniProt O75469+P40337); assay: PROTAC activity at PXR/VHL in human SNU-C4 HiBiT-PXR KI cell assessed as inhibition of LBD-VCB complex formation at 41.2 nM incubated for 24 hrs by TR-FRET assay; assay type: cell-based; settings: 0.0412 µM
T1 sequence (P40337 whole entry, one chain of several, the tested form may be a part): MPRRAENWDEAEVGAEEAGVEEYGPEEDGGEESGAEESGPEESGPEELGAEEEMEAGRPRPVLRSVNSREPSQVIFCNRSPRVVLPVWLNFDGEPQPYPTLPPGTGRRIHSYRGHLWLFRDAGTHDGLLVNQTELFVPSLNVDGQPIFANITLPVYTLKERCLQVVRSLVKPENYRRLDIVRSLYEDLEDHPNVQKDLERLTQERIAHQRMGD

[2] = biological target: T2, Nuclear receptor subfamily 1 group I member 2 (Homo sapiens, UniProt O75469); assay: Displacement of BODIPY FL-probe from GST-tagged PXR LBD (unknown origin) incubated for 90 mins by TR-FRET assay
T2 sequence (O75469 whole entry): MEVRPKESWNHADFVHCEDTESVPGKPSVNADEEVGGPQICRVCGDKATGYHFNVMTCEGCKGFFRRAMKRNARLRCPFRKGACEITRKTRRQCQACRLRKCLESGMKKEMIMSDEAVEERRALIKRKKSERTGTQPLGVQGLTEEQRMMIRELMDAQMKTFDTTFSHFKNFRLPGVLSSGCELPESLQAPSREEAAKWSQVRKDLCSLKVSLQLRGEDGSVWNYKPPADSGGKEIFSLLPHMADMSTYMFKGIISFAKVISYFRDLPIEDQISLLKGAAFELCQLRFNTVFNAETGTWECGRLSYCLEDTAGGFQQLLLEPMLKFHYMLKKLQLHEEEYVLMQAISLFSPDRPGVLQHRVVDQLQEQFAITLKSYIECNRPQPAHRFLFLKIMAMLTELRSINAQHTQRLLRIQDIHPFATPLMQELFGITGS

[3] = Cytotoxicity against human SNU-C4 HiBiT-PXR KI cell assessed as cell viability at 30 uM incubated for 24 hrs by celltiter-glo luminescent assay relative to control; assay type: functional; settings: read-out: Activity
[4] = Cytotoxicity against human SNU-C4 HiBiT-PXR KI cell assessed as cell viability incubated for 72 hrs by celltiter-glo luminescent assay; assay type: functional
[5] = Cytotoxicity against human SNU-C4 HiBiT-PXR KI cell assessed as cell viability at 30 uM incubated for 72 hrs by celltiter-glo luminescent assay relative to control; assay type: functional; settings: read-out: Activity
[6] = Cytotoxicity against human SNU-C4 HiBiT-PXR KI cell assessed as cell viability incubated for 24 hrs by celltiter-glo luminescent assay; assay type: functional
[7] = biological target: T1, von Hippel-Lindau disease tumor suppressor/Nuclear receptor subfamily 1 group I member 2; assay: PROTAC activity at N-terminal PXR/VHL in human SNU-C4 HiBiT-PXR KI cell assessed as reduction in PXR protein level incubated for 24 hrs by Western blot analysis; assay type: cell-based
[8] = biological target: von Hippel-Lindau disease tumor suppressor/Nuclear receptor subfamily 1 group I member 3 (Homo sapiens, UniProt Q14994+P40337); assay: PROTAC activity at CAR/VHL in HEK293T cells assessed as CAR degradation at 0.001 to 100 uM incubated for 24 hrs; assay type: cell-based; settings: dose 0.001-100 µM
Chain of von Hippel-Lindau disease tumor suppressor/Nuclear receptor subfamily 1 group I member 3 (Q14994 whole entry): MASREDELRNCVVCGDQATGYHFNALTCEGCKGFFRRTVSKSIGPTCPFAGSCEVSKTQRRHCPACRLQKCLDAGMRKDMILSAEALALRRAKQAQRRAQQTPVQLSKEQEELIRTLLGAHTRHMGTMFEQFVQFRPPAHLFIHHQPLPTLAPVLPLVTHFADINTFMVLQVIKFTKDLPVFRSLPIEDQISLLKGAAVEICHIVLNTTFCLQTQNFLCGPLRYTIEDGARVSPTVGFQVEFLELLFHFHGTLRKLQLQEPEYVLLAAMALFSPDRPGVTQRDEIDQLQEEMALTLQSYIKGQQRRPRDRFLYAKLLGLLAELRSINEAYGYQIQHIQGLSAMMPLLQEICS
Chain of von Hippel-Lindau disease tumor suppressor/Nuclear receptor subfamily 1 group I member 3 (P40337 whole entry): as the sequence (P40337 whole entry, one chain of several, the tested form may be a part) above

[9] = biological target: T2, Nuclear receptor subfamily 1 group I member 2; assay: Inhibition of PXR activation in human HepG2 cells transfected with CYP3A4 incubated for 24 hrs in presence of rifampicin; assay type: cell-based; settings: hepg2, 24 h
[10] = biological target: T2, Nuclear receptor subfamily 1 group I member 2; assay: Inhibition of PXR activation in human HepG2 cells transfected with CYP3A4 incubated for 24 hrs in presence of T0901317; assay type: cell-based; settings: hepg2, 24 h
[11] = biological target: T1, von Hippel-Lindau disease tumor suppressor/Nuclear receptor subfamily 1 group I member 2; assay: PROTAC activity at PXR/VHL in human SNU-C4 HiBiT-PXR KI cell assessed as PXR degradation at 1 uM incubated for 8 hrs in presence of MLN4924 by Western blot analysis; assay type: cell-based
SNU-C4 [12] = assay: Effect on PXR mRNA level in human SNU-C4 cells at 10 uM incubated for 24 hrs in presence of paclitaxel by RT-qPCR analysis; assay type: functional, cell-based
[13] = biological target: T2, Nuclear receptor subfamily 1 group I member 2; assay: Inhibition of PXR activation in human HepG2 cells transfected with CYP3A4 incubated for 24 hrs in presence of paclitaxel; assay type: cell-based; settings: hepg2, 24 h
[14] = biological target: von Hippel-Lindau disease tumor suppressor/Oxysterols receptor LXR-alpha (Homo sapiens) (UniProt Q13133+P40337); assay: PROTAC activity at LXRalpha/VHL in HEK293T cells assessed as LXRalpha degradation at 0.001 to 100 uM incubated for 24 hrs; assay type: cell-based; settings: dose 0.001-100 µM
Chain of von Hippel-Lindau disease tumor suppressor/Oxysterols receptor LXR-alpha (Homo sapiens) (P40337 whole entry, looked up): as the sequence (P40337 whole entry, one chain of several, the tested form may be a part) above
Chain of von Hippel-Lindau disease tumor suppressor/Oxysterols receptor LXR-alpha (Homo sapiens) (Q13133 whole entry, looked up): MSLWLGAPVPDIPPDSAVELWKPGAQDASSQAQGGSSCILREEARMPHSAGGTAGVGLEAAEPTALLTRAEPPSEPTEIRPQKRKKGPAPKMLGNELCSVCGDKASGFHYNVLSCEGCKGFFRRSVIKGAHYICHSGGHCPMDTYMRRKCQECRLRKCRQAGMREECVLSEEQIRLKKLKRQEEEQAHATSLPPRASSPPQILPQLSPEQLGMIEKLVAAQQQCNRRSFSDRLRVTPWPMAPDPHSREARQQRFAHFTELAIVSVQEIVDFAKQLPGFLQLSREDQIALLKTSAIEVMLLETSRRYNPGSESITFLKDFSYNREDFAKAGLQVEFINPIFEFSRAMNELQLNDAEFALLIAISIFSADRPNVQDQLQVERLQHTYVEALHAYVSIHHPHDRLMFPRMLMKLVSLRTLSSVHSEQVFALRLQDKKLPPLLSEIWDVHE

HepG2 = assay: Reduction in basal PXR activity on CYP3A4 promoter in human HepG2 cells at 10 uM in absence of PXR agonist; assay type: functional, cell-based
[15] = biological target: von Hippel-Lindau disease tumor suppressor/Vitamin D3 receptor (Homo sapiens) (UniProt P11473+P40337); assay: PROTAC activity at VDR/VHL in HEK293T cells assessed as VDR degradation at 0.001 to 100 uM incubated for 24 hrs; assay type: cell-based; settings: dose 0.001-100 µM
Chain of von Hippel-Lindau disease tumor suppressor/Vitamin D3 receptor (Homo sapiens) (P11473 whole entry, looked up): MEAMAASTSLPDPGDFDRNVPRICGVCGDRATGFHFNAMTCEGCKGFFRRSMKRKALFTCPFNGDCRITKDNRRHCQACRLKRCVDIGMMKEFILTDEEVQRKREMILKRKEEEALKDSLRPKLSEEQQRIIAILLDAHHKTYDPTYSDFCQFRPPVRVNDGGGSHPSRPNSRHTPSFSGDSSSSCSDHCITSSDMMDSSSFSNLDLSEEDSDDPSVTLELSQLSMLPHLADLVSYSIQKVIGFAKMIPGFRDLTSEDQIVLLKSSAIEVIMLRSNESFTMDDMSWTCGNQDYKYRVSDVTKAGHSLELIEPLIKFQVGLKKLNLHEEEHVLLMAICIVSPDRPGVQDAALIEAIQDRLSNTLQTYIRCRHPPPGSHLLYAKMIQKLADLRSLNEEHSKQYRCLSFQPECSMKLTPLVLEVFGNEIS
Chain of von Hippel-Lindau disease tumor suppressor/Vitamin D3 receptor (Homo sapiens) (P40337 whole entry, looked up): as the sequence (P40337 whole entry, one chain of several, the tested form may be a part) above

[16] = biological target: T1, von Hippel-Lindau disease tumor suppressor/Nuclear receptor subfamily 1 group I member 2; assay: PROTAC activity at PXR/VHL in human SNU-C4 HiBiT-PXR KI cell assessed as PXR degradation at 1 uM incubated for 8 hrs in presence of VH032 by Western blot analysis; assay type: cell-based
[17] = biological target: von Hippel-Lindau disease tumor suppressor/Oxysterols receptor LXR-beta (Homo sapiens) (UniProt P55055+P40337); assay: PROTAC activity at LXRbeta/VHL in HEK293T cells assessed as LXRbeta degradation at 0.001 to 100 uM incubated for 24 hrs; assay type: cell-based; settings: dose 0.001-100 µM
Chain of von Hippel-Lindau disease tumor suppressor/Oxysterols receptor LXR-beta (Homo sapiens) (P40337 whole entry, looked up): as the sequence (P40337 whole entry, one chain of several, the tested form may be a part) above
Chain of von Hippel-Lindau disease tumor suppressor/Oxysterols receptor LXR-beta (Homo sapiens) (P55055 whole entry, looked up): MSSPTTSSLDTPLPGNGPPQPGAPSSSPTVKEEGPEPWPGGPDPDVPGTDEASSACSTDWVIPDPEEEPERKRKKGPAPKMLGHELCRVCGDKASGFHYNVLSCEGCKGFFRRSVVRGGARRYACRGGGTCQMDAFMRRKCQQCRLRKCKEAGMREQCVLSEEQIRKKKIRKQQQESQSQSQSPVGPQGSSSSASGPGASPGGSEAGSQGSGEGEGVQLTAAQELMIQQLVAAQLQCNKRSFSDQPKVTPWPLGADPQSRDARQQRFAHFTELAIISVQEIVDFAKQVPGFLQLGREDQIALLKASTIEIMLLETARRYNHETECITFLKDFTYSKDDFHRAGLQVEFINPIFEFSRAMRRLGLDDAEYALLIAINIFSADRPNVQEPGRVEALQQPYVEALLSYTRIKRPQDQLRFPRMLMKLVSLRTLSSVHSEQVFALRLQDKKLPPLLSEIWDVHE

[18] = biological target: T1, von Hippel-Lindau disease tumor suppressor/Nuclear receptor subfamily 1 group I member 2; assay: PROTAC activity at PXR/VHL in human SNU-C4 HiBiT-PXR KI cell assessed as PXR degradation at 1 uM incubated for 8 hrs in presence of MG132 by Western blot analysis; assay type: cell-based
SNU-C4 [19] = assay: Cytotoxicity against human SNU-C4 cells assessed as cell viability incubated for 72 hrs in presence of paclitaxel; assay type: functional
[20] = biological target: T1, von Hippel-Lindau disease tumor suppressor/Nuclear receptor subfamily 1 group I member 2; assay: PROTAC activity at PXR/VHL in human SNU-C4 HiBiT-PXR KI cell assessed as PXR degradation at 1 uM incubated for 8 hrs in presence of methyl (S)-3-(1-(2,5-dimethoxyphenyl)-5-methyl-1H-1,2,3-triazole-4-carboxamido)-4-(hexan-3-yloxy)benzoate by Western blot analysis; assay type: cell-based
[21] = biological target: T2, Nuclear receptor subfamily 1 group I member 2; assay: Inhibition of PXR activation in human SNU-C4 cells transfected with CYP3A4 at 10 uM incubated for 24 hrs in presence of paclitaxel; assay type: cell-based; settings: snu-c4, 24 h
[22] = biological target: T1, von Hippel-Lindau disease tumor suppressor/Nuclear receptor subfamily 1 group I member 2; assay: PROTAC activity at N-terminal PXR/VHL in human SNU-C4 HiBiT-PXR KI cell assessed as PXR degradation upto 10 uM incubated at 24 hrs by Western blot analysis; assay type: cell-based
[23] = biological target: von Hippel-Lindau disease tumor suppressor/Bile acid receptor (Homo sapiens) (UniProt Q96RI1+P40337); assay: PROTAC activity at FXR/VHL in HEK293T cells assessed as FXR degradation at 0.001 to 100 uM incubated for 24 hrs; assay type: cell-based; settings: dose 0.001-100 µM
Chain of von Hippel-Lindau disease tumor suppressor/Bile acid receptor (Homo sapiens) (P40337 whole entry, looked up): as the sequence (P40337 whole entry, one chain of several, the tested form may be a part) above
Chain of von Hippel-Lindau disease tumor suppressor/Bile acid receptor (Homo sapiens) (Q96RI1 whole entry, looked up): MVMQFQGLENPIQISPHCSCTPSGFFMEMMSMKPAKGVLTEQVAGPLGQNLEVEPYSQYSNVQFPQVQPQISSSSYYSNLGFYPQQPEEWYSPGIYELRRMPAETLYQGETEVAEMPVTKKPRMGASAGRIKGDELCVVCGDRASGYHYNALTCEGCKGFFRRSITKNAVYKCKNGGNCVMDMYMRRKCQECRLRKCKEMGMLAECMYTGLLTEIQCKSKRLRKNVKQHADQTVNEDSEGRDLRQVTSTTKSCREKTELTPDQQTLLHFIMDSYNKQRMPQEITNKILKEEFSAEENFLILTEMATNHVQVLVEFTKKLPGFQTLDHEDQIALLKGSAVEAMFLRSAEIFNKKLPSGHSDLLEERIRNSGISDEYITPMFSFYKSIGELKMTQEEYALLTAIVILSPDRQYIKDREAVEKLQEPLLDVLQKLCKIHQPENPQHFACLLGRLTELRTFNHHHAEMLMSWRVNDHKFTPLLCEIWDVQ

[24] = biological target: T1, von Hippel-Lindau disease tumor suppressor/Nuclear receptor subfamily 1 group I member 2; assay: PROTAC activity at […] PXR/VHL in human SNU-C4 HiBiT-PXR KI cell assessed as PXR degradation incubated at 24 hrs by Western blot analysis; assay type: cell-based

Activity [8]	Activity [11]	Activity [14]	Activity [15]	Activity [16]	Activity [17]	Activity [18]	Activity [20]	Activity [22]	Activity [23]	Structure (SMILES)	viability at 30 µM [3] [%]	CC50 [4] [µM]	viability at 30 µM [5] [%]	CC50 [6] [µM]	further results
–	–	–	–	–	–	–	–	–	–	CC(=O)N[C@H](C(=O)N1C[C@@H](O)C[C@H]1C(=O)NCc1ccc(-c2scnc2C)cc1)C(C)(C)C	–	–	–	–	Activity [1]: Not Active
–	–	–	–	–	–	–	–	–	–	CCC[C@H](CC)Oc1ccc(C(=O)OC)cc1NC(=O)c1nnn(-c2cc(OC)ccc2OC)c1C	95.6	> 30	94.9	> 30	Activity [2]: Active; DC50 [7]: > 30 µM
Not Active	Not Active	inactive	inactive	Not Active	inactive	Not Active	Not Active	Active	inactive	CCC[C@H](CC)Oc1ccc(C(=O)OC)cc1NC(=O)c1nnn(-c2cc(OC)c(OCCCCCCOCCOCC(=O)N[C@H](C(=O)N3C[C@H](O)C[C@H]3C(=O)NCc3ccc(-c4scnc4C)cc3)C(C)(C)C)cc2OC)c1C	102	> 30	105	> 30	inhibition (INH) [9]: Active; inhibition (INH) [10]: Active; Activity (SNU-C4 [12]): inactive; inhibition (INH) [13]: Active; Activity (HepG2): Active; CC50 (SNU-C4 [19]): 9.53 µM; inhibition (INH) [21]: Active
Not Active	Not Active	inactive	inactive	Not Active	inactive	Not Active	Not Active	Active	inactive	CCC[C@H](CC)Oc1ccc(C(C)(C)C)cc1NC(=O)c1nnn(-c2cc(OC)c(OCCCCCCOCCOCC(=O)N[C@H](C(=O)N3C[C@H](O)C[C@H]3C(=O)NCc3ccc(-c4scnc4C)cc3)C(C)(C)C)cc2OC)c1C	97.4	> 30	99.5	> 30	DC50 [24]: 0.0531 µM
